Biological target: GABAa receptor
Experiment: GABAa receptor binding activity ([3H]-RO15-1788 displacement, rat cortical tissue)
Conditions: 0.5 nM [3H]-RO15-1788, 30 min at 4° C., nonspecific with 1.0 μM diazepam
Procedure: The pharmaceutical utility of compounds of this invention are indicated by the following assay for GABAa receptor binding activity.
Assays are carried out as described in Thomas and Tallman (J. Bio. Chem. 156:9838-9842, J. Neurosci. 3:433-440, 1983). Rat conical tissue is dissected and homogenized in 25 volumes (w/v) of 0.05M Tris HCl buffer (pH 7.4 at 4° C.). The tissue homogenate is centrifuged in the cold (4°) at 20,000×g for 20'. The supernatant is decanted and the pellet is rehomogenized in the same volume of buffer and again centrifuged at 20,000×g. The supernatant is decanted and the pellet is frozen at -20° C. overnight. The pellet is then thawed and rehomogenized in 25 volume (original wt/vol) of buffer and the procedure is carried out twice. The pellet is finally resuspended in 50 volumes (w/vol of 0.05M Tris HCl buffer (pH 7.4 at […]).
Incubations contain 100 μl of tissue homogenate, 100 μl of radioligand 0.5 nM (^3 H-RO15 -1788 [^3 H-Flumazenil] specific activity 80 Ci/mmol), drug or blocker and buffer to a total volume of 500 μl. Incubations are carried for 30 min at 4° C. then are rapidly filtered through GFB filters to separate free and bound ligand. Filters are washed twice with fresh 0.05M Tris HCl buffer (pH 7.4 at 4° C.) and counted in a liquid scintillation counter. 1.0 μM diazepam is added to some tubes to determine nonspecific binding. Data are collected in triplicate determinations, averaged and % inhibition of total specific binding is calculated. Total Specific Binding=Total-Nonspecific. In sonic cases, the amounts of unlabeled drugs is varied and total displacement curves of binding are carried out. Data are converted to a form for the calculation of IC50 and Hill Coefficient (nH).

Row | Compound | IC50 [nM]
1 | COc1ccc(F)c(-c2ncc3[nH]c4ccccc4n3c2=O)c1 [Compound 2, 2-(2-Fluoro-5-methoxyphenyl)-benzimidazo[1,2-a]pyrazin-1(5H)-one] | 167
2 | O=c1c(-c2ccccc2)ncc2[nH]c3ccccc3n12 [Compound 3, 2-Phenyl-benzimidazo[1,2-a]pyrazin-1(5H)-one] | 93
3 | COc1ccc(-c2ncc3[nH]c4ccccc4n3c2=O)cc1 [Compound 1, 2-(4-Methoxyphenyl)-benzimidazo[1,2-a]pyrazin-1(5H)-one] | 15
4 | COc1cccc(-c2ncc3[nH]c4ccccc4n3c2=O)c1 [Compound 4] | 61

Tested on: GABA binding site / benzodiazepine binding site
Experiment: not given
Conditions: Tallman et al. 1978; cited from earlier work

Row | Compound | block of enhancement of benzodiazepine binding by GABA agonists
5 | CN1CCc2cc3c(cc2C1C1OC(=O)c2c1ccc1c2OCO1)OCO3 (single isomer, unassigned; (+)) [(+) bicuculline] | blocked
6 | CN1CCc2cc3c(cc2C1C1OC(=O)c2c1ccc1c2OCO1)OCO3 (single isomer, unassigned; (-)) [(-) bicuculline] | much less active

Reference: patent US5610299A (priority 1995, dated 1997)
